For series [1], the system named is mSC mitochondria. As to the kind of experiment: Mitochondrial pH imaging (mito-SypHer) in mSC of mouse sciatic nerve. Format: in vivo. The settings on record: after nerve crush. Here is the method:
(§1) Mice were anesthetized with isoflurane inhalation and placed under a Stemi2000 microscope (Zeiss). Incision area was shaved and cleaned using betadine solution. After incision, the gluteus superficialis and biceps femoris muscles were separated to reveal the cavity traversed by the sciatic nerve. The nerve was lift out using spatula and a thin glass needle filled with viral solution (8 μl) was introduced into the nerve with a micromanipulator. This solution was injected over 30 min with short pressure pulses using a Picospritzer III (Parker Hannifin) coupled to a pulse generator. After injection, the nerve was replaced into the cavity, the muscles were readjusted, and the wound was closed using clips (for further details see Gonzalez et al., 2014^3).
(§2) TRO19622 drug (Tocris bioscience, Ref. 2906) was diluted in ethanol to 20 mM and then, the solution was diluted in sterile PBS to 20 μM. TRO19622 treatments were realized by 3 mg/kg intraperitoneal (IP) injections of 20 mM solution or by intra sciatic nerve injections of 2 μl of drug solution 2 μM using a Hamilton syringe or a glass needle in sterile conditions 30 minutes before multiphoton image acquisitions or immunohistochemistry and demyelination studies respectively. Methyl jasmonate drug (Sigma-Aldrich, Ref. 392707) was diluted in 1 ml of sterile PBS to 1M or 3M. Methyl jasmonate treatments were realized by intra sciatic nerve injections of 1 μl of drug solution using a glass needle and micromanipulator in sterile conditions following the same virus injections procedure (see in vivo virus injection in the sciatic nerve method) two hours before multiphoton image acquisition. […] All drug concentrations were previously evaluated by Bordet et al, 2007^5; Goldin et al, 2008^6; Sharov et al, 2007^7.
First injected mouse was anesthetized with 5% of isoflurane a 1.5% of oxygen into the anesthesia system box (World Precision Instruments, Ref. EZ-B800) for 5 minutes. Anesthesia controls were realized^8. Then, mouse was placed in anesthesia mask and the incision area was shaved and cleaned with betadine and ethanol 70% solution. […]

For series [2], the system named is mSC mitochondria. As to the kind of experiment: Mitochondrial motility imaging (mito-dsRed2) in mSC of mouse sciatic nerve. Format: in vivo. The settings on record: after nerve crush. As to the method:
as §1, §2
First injected mouse was anesthetized with 5% of isoflurane a 1.5% of oxygen into the anesthesia system box (World Precision Instruments, Ref. EZ-B800) for 5 minutes. Anesthesia controls were realized^8. Then, mouse was placed in anesthesia mask and the incision area was shaved and cleaned with betadine and ethanol 70% solution. Incision was realized using a scalpel and the skin was retracted using forceps in order to expose the gluteus superficialis and bleeps femoris muscles. Next, the connective tissue that connects both muscles was cut and the sciatic nerve was gently lifted out using a spatula. A flexible bridge was slide below sciatic nerve and it was placed into a plastic first pool fixed to the bridge. Mouse was placed under the multiphoton microscope, the bridge was fixed using magnetic brackets to avoid physiological movement and mouse legs were fixed using clippers. Microscope dark box temperature is controlled to 37° C. during all time-lapse imaging. Finally, a second pool was fixed to the first pool using a drop of agarose low melting 3% (Promega, Ref. V2111) in Leibovitz's L15 medium (Gibco Life Technologies) and filled with deionized water to immerse the objectives 20× or 63× (Carl Zeiss Microscopy).
All time-lapse images were obtained with a multiphoton microscope Zeiss LSM 7 MP OPO. Mitochondria motility images were acquired by time-lapse recording of one image every five minutes during five hours at 920 nm. GCaMP2 and SypHer probe images were acquired by time-lapse recording of one image every fifteen minutes during five hours at 985 nm. Images were acquired to constant 1% of laser intensity to 100 msec of acquisition time with 512×512 resolution and 10 images of z-stack of 20 μm. […]

Series [3] deals with phospho-ERK1/2, phospho-p38, phospho-JNK and phospho-c-jun. As to the kind of experiment: Western blot of demyelination signaling pathways in sciatic nerve after crush or MJ. Format: in vivo, mouse. The settings on record: western blot 4 and 12 hours after crush; treated before crush. As to the method: as §2
(In general: A western blot detects proteins with antibodies after separation by electrophoresis.)

The test system of series [4] is myelinating Schwann cells. As to the kind of experiment: mSC demyelination morphology (confocal microscopy) four days after nerve crush. The following applies: intraperitoneal or intranerve injections before and daily after nerve injury. In kind it is in vivo, mouse. Here is the method:
as §1, §2
Finally we also investigated the demyelination using typical defects induced in the cellular morphology of mSC. Nerves expressing control or VDAC1 shRNAs were crushed to induce demyelination and four days later, when demyelination is maximal, we analyzed the morphology of VDAC1-silenced mSC using confocal microscopy as described previously^19. mSC display long homogenous noodle-like morphology with a regular diameter but during demyelination, they acquire a heterogeneous morphology often alterning large structures (myelin ovoids) with thin processes and their extremities split in fine extensions.

The next series deals with CMT1A rats. As to the kind of experiment: Sciatic nerve morphometry (toluidine blue, electron microscopy) in CMT1A rats. In kind it is in vivo, rat. Here is the method:
Sciatic nerves of 20 and 28 weeks old diabetic mice or 16 and 24 weeks old CMT1A rats treated with TRO19622 drug or PBS were fixed for 20 min in situ with 4% PFA and 2.5% glutaraldehyde, in 0.1 M phosphate buffer (pH7.3). Then nerves were removed and postfixed overnight in the same buffer.
After washing 30 min in 0.2M PBS phosphate buffer, the nerves were incubated with 2% osmic acid in 0.1M phosphate buffer for 90 minutes at room temperature. Then, samples were washed in 0.2M PBS phosphate buffer, dehydrated using ethanol gradient solutions and embedded in epoxy resin. For electron microscopy of sciatic nerves, ultrathin (70 nm) cross-sections were cut and stained with 1% uranylacetate solution and lead-citrate and analyzed using a HITACHI H7100 electron microscope at the ‘Centre des Resources en Imagerie Cellulaire’ (CRIC) (for further details see Cotter et al., 2010^9). Semi-thin cross-sections (0.7 μm) were cut using a microtome (Leica, RM 2155) with a diamond knife (Histo HI 4317, Diatome). Sections were stained with blue of toluidine and observed using light microscope. G-ratio was determined using GRatioCalculator plugin of Image J. At less 200 fibers per animal were analysed.
While demyelinating diabetes peripheral neuropathy is a commonly acquired disease, demyelination is also the characteristic feature of a large number of inherited diseases called Charcot-Marie-Tooth diseases (CMT). We therefore sought to test whether the inhibition of VDAC1 function could prevent demyelination in these diseases. We choose CMT1A rat strain^42 as this is arguably the most representative animal model of Charcot-Marie-Tooth disease, mimicking CMT1A the most prevalent CMT in humans^10. Twelve weeks old CMT1A rats were daily treated with TRO19622 for 15 or 30 days and one day or two months after treatment, we analyzed MAPK demyelination pathways by western blot. […] However, these effects disappeared two months after treatment. Then we analyzed phospho-c-jun activation in mSC using immunohistochemistry. […] Next, we measured Schwann cell demyelination and g-ratio by toluidine blue staining on semi-thin sciatic nerve sections and on thin sections using electron microscopy.

For series [5] the following is noted: cited from earlier work.

Like-named read-outs stand apart in the source and are kept apart here.

As for `CC(C)CCC[C@@H](C)[C@H]1CC[C@H]2[C@@H]3CCC4=C/C(=N\O)CC[C@]4(C)[C@H]3CC[C@]12C` [TRO19622, (NZ)—N-[(8S,9S,10R,13R,14S,17R)-10,13-dimethyl-17-[(2R)-6-methylheptan-2-yl]-1,2,6,7,8,9,11,12,14,15,16,17-dodecahydrocyclopenta[a]phenanthren-3-ylidene]hydroxylamine], the “changes induced by nerve crush in mitochondrial pH not abrogated” value in the series on mSC mitochondria [1] is listed as 12%. Also, the “changes induced by nerve crush in mitochondrial motility not abrogated” value with mSC mitochondria [2] stood at 20%. In series [3], the “increase in phospho-ERK1/2, phospho-p38, phospho-JNK and phospho-c-jun after nerve crush” value was “strongly reduced”. The “number of demyelinating cells after nerve injury” value in series [4] is “strongly reduced”. Moreover, in the series with CMT1A rats, the “g-ratio of myelinated fibers” value is “significant increase”; the “number and diameter of axons in the nerve” value is “increased”; the “number of demyelinated fibers” value was “reduction”. Moreover, in the series with CMT1A rats (listed as TRO16922), the “g-ratio of myelinated fibers” value is recorded as “restored a correct g-ratio”; the “number and diameter of axons in the nerve” value is given as “rescued axonal loss”. Also, the safety in humans entry in series [5] is “safe”.

Values taken from patent US12053480B2, “Methods and pharmaceutical compositions for treating peripheral demyelinating diseases” (INSERM (INSTITUT NATIONAL DE LA SANTE ET DE LA RECHERCHE …, priority 2015, dated 2024).
